Measurements as given in the supplement of paper PMC10307832.

Legend:
Assay in all cases: relative viability (nuclei count vs DMSO), 5 days (fraction); higher = more cells survive
Tipifarnib = compound: Cn1cncc1[C@@](N)(c1ccc(Cl)cc1)c1ccc2c(c1)c(-c1cccc(Cl)c1)cc(=O)n2C [Tipifarnib]
Outline: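 Lung cancer cell lines in 1536-well plates were kept overnight at 37 °C, then pinned with five library-drug doses (not always all listed) spaced by √10 on vehicle-anchored plates. After 5 days without medium change, cells were fixed, permeabilised and Hoechst-stained in one step, imaged at 4×, and nuclei were counted with MetaXpress. Viability is treated-well nuclei divided by vehicle-well nuclei, taken as the median over plates. Plates passed only with control CV below 25% and at least one doubling.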

Tipifarnib + Olaparib = compound: Cn1cncc1[C@@](N)(c1ccc(Cl)cc1)c1ccc2c(c1)c(-c1cccc(Cl)c1)cc(=O)n2C [Tipifarnib] + O=C(c1cc(Cc2n[nH]c(=O)c3ccccc23)ccc1F)N1CCN(C(=O)C2CC2)CC1 [Olaparib] (partner 8 µM)
Outline: (§1)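 For relative viability, nuclei counts in treated wells were divided by those in vehicle wells. Lung cancer cell lines had been pin-tool dosed in 1536-well plates the day after seeding and cultured for 5 days, then fixed and stained in one step (final 0.05% Triton X-100, 1% formaldehyde, 1 ug/ml Hoechst) and imaged at 4×. Doses were one drug alone or a fixed anchor-drug dose plus five library-drug doses (not always all listed) in √10 steps, and values are duplicate-plate medians.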

Tipifarnib + Phenformin = compound: Cn1cncc1[C@@](N)(c1ccc(Cl)cc1)c1ccc2c(c1)c(-c1cccc(Cl)c1)cc(=O)n2C [Tipifarnib] + N=C(N)NC(=N)NCCc1ccccc1 [Phenformin] (partner 250 µM)
Outline: as §1

Tipifarnib + Trametinib = compound: Cn1cncc1[C@@](N)(c1ccc(Cl)cc1)c1ccc2c(c1)c(-c1cccc(Cl)c1)cc(=O)n2C [Tipifarnib] + CC(=O)Nc1cccc(-n2c(=O)n(C3CC3)c(=O)c3c(Nc4ccc(I)cc4F)n(C)c(=O)c(C)c32)c1 [Trametinib] (partner 0.02 µM)
Outline: as §1

Cell Line	relative viability (Tipifarnib; 0.01 µM)	relative viability (Tipifarnib; 0.03162 µM)	relative viability (Tipifarnib; 0.1 µM)	relative viability (Tipifarnib; 0.3162 µM)	relative viability (Tipifarnib; 1 µM)	relative viability (Tipifarnib + Olaparib; first compound 0.01 µM)	relative viability (Tipifarnib + Olaparib; first compound 0.03162 µM)	relative viability (Tipifarnib + Olaparib; first compound 0.1 µM)	relative viability (Tipifarnib + Olaparib; first compound 0.3162 µM)	relative viability (Tipifarnib + Olaparib; first compound 1 µM)	relative viability (Tipifarnib + Phenformin; first compound 0.01 µM)	relative viability (Tipifarnib + Phenformin; first compound 0.03162 µM)	relative viability (Tipifarnib + Phenformin; first compound 0.1 µM)	relative viability (Tipifarnib + Phenformin; first compound 0.3162 µM)	relative viability (Tipifarnib + Phenformin; first compound 1 µM)	relative viability (Tipifarnib + Trametinib; first compound 0.01 µM)	relative viability (Tipifarnib + Trametinib; first compound 0.03162 µM)	relative viability (Tipifarnib + Trametinib; first compound 0.1 µM)	relative viability (Tipifarnib + Trametinib; first compound 0.3162 µM)	relative viability (Tipifarnib + Trametinib; first compound 1 µM)
NCI-H2126	1.03	0.992	0.954	0.933	0.566	0.927	0.885	0.844	0.843	0.879	0.56	0.532	0.517	0.49	0.435	0.585	0.496	0.528	0.515	0.482
HCC-44	0.967	0.871	0.802	0.729	0.472	0.973	0.925	0.993	0.957	0.942	0.214	0.107	0.166	0.18	0.109	0.992	0.942	0.908	0.781	0.891
NCI-H460	0.989	0.963	0.727	0.538	0.149	0.462	0.369	0.219	0.207	0.208	0.516	0.376	0.295	0.224	0.0277	0.142	0.0861	0.0817	0.0529	0.0386
SK-LU-1	1.03	0.778	0.711	0.536	0.634	0.527	0.419	0.525	0.395	0.292	0.528	0.324	0.307	0.275	0.283	0.572	0.483	0.442	0.384	0.392
NCI-H322M	0.965	1.06	0.977	0.805	0.786	0.825	0.772	0.884	0.774	0.91	0.868	0.749	0.799	0.682	0.66	0.492	0.565	0.519	0.542	0.548
EKVX	1.07	0.954	0.901	0.807	0.531	0.881	0.829	0.682	0.586	0.521	0.238	0.214	0.229	0.211	0.173	0.261	0.35	0.244	0.298	0.264
NCI-H1734	0.92	0.865	0.789	0.559	0.448	0.626	0.615	0.54	0.494	0.482	0.391	0.352	0.373	0.251	0.275	0.66	0.555	0.556	0.478	0.407
SW 900	0.697	0.282	0.486	0.338	0.272	0.508	0.545	0.494	0.406	0.381	0.405	0.216	0.365	0.244	0.207	0.517	0.465	0.489	0.478	0.332
NCI-H520	1.02	0.9	0.947	0.658	0.504	0.351	0.348	0.318	0.293	0.273	0.591	0.319	0.447	0.425	0.267	0.87	0.642	0.7	0.521	0.315
EPLC-272H	0.995	0.761	0.818	0.618	0.238	0.86	0.481	0.578	0.35	0.222	0.357	0.328	0.344	0.266	0.149	0.336	0.274	0.246	0.303	0.234
UMC-11	0.884	0.641	0.566	0.517	0.432	0.432	0.356	0.357	0.346	0.339	0.332	0.311	0.303	0.251	0.238	0.653	0.569	0.471	0.377	0.301
NCI-H1792	0.952	0.715	0.706	0.25	0.238	0.301	0.279	0.208	0.169	0.122			0.125	0.0695	0.114	0.409	0.241	0.246	0.242	0.239
NCI-H1993	0.966	0.754	0.736	0.593	0.69	1.04	0.94	0.937	0.701	0.604	0.414	0.508	0.529	0.518	0.559	0.575	0.476	0.485	0.594	0.61
NCI-H596	0.982	0.964	0.918	0.724	0.587	0.667	0.693	0.65	0.574	0.593	0.801	0.745	0.663	0.574	0.658	0.759	1	0.593	0.53	0.527
NCI-H1793	0.981	0.802	0.869	0.448	0.462	0.875	0.718	0.809	0.695	0.608	0.357	0.371	0.354	0.194	0.267	0.426	0.37	0.342	0.381	0.339
NCI-H1395	0.808	0.823	0.659	0.606	0.492	0.444	0.5	0.454	0.421	0.473	0.444	0.398	0.428	0.436	0.348	1.25	0.966	0.946	0.862	0.967

Cell Line	relative viability (Tipifarnib; 0.01 µM)	relative viability (Tipifarnib; 0.03162 µM)	relative viability (Tipifarnib; 0.1 µM)	relative viability (Tipifarnib; 0.3162 µM)	relative viability (Tipifarnib; 1 µM)	relative viability (Tipifarnib + Olaparib; first compound 0.01 µM)	relative viability (Tipifarnib + Olaparib; first compound 0.03162 µM)	relative viability (Tipifarnib + Olaparib; first compound 0.1 µM)	relative viability (Tipifarnib + Olaparib; first compound 0.3162 µM)	relative viability (Tipifarnib + Olaparib; first compound 1 µM)	relative viability (Tipifarnib + Phenformin; first compound 0.01 µM)	relative viability (Tipifarnib + Phenformin; first compound 0.03162 µM)	relative viability (Tipifarnib + Phenformin; first compound 0.1 µM)	relative viability (Tipifarnib + Phenformin; first compound 0.3162 µM)	relative viability (Tipifarnib + Phenformin; first compound 1 µM)	relative viability (Tipifarnib + Trametinib; first compound 0.01 µM)	relative viability (Tipifarnib + Trametinib; first compound 0.03162 µM)	relative viability (Tipifarnib + Trametinib; first compound 0.1 µM)	relative viability (Tipifarnib + Trametinib; first compound 0.3162 µM)	relative viability (Tipifarnib + Trametinib; first compound 1 µM)
HCC-827	1.06	0.975	0.787	0.65	0.584	0.68	0.693	0.545	0.443	0.478	0.425	0.413	0.406	0.34	0.376	0.529	0.598	0.481	0.479	0.504
ChaGo-K-1	0.993	1.02	1.08	0.928	0.547	0.455	0.406	0.459	0.419	0.373	0.451	0.518	0.464	0.412	0.273	0.96	0.942	0.868	0.853	0.674
NCI-H2228	1.06	0.844	0.687	0.606	0.553	0.84	0.523	0.471	0.386	0.478	0.25	0.286	0.379	0.222	0.138	0.542	0.378	0.385	0.303	0.177
NCI-H2170	1.04	1.03	0.992	0.789	0.8	0.687	0.582	0.536	0.47	0.474	0.439	0.418	0.389	0.379	0.343	1.04	0.876	0.793	0.716	0.655
EMC-BAC-2	0.997	0.936	0.82	0.809	0.529	0.502	0.441	0.482	0.427	0.429	0.501	0.437	0.459	0.485	0.357	0.81	0.754	0.655	0.606	0.614
NCI-H522	0.917	1.06	1.1	0.898	0.748	0.633	0.677	0.621	0.67	0.542	0.617	0.698	0.65	0.599	0.563	0.802	0.834	0.739	0.68	0.696
NCI-H23	1.09	0.767	0.765	0.539	0.337	0.318	0.241	0.33	0.266	0.21	0.845	0.752	0.564	0.435	0.346	0.368	0.493	0.398	0.292	0.204
RERF-LC-KJ	1.1	0.948	0.899	0.697	0.665	0.993	0.898	0.864	0.718	0.699	0.447	0.401	0.392	0.366	0.339	0.828	0.961	0.776	0.652	0.646
NCI-H358	1.04	0.918	0.834	0.729	0.416	0.607	0.578	0.542	0.48	0.34	0.372	0.45	0.307	0.323	0.168	0.143	0.102	0.133	0.107	0.135
LC-2-ad	0.925	0.783	0.636	0.614	0.403	0.69	0.667	0.666	0.533	0.515	0.566	0.532	0.498	0.568	0.372	0.938	0.661	0.669	0.561	0.532
HCC-15	0.846	0.835	0.699	0.551	0.271	0.758	0.75	0.793	0.631	0.56	0.407	0.392	0.368	0.338	0.223	0.36	0.35	0.273	0.258	0.221
NCI-H2405	1.03	0.984	0.928	0.954	0.735	0.88	0.899	0.903	0.801	0.838	0.384	0.371	0.374	0.415	0.361	0.7	0.518	0.487	0.489	0.582
LXF-289	0.985	0.943	1	0.894	0.771	1.12	1.02	0.989	0.805	0.91	0.518	0.494	0.494	0.418	0.175	0.71	0.684	0.695	0.557	0.64
CAL-12T	0.937	0.82	0.617	0.549	0.391	0.717	0.587	0.527	0.455	0.465	0.533	0.414	0.379	0.378	0.231	0.359	0.289	0.234	0.222	0.177
COR-L23	1.04	0.803	0.681	0.622	0.467	0.403	0.289	0.335	0.255	0.258	0.469	0.351	0.361	0.305	0.238	0.609	0.301	0.329	0.33	0.277
